The term IC50 denotes the concentration that gives 50% inhibition. As usually defined, the inhibition is the share of the control response that was lost under treatment. A high value points to a response far below the control.

Assay [1] deals with T1, Macrophage migration inhibitory factor (Homo sapiens, UniProt P14174).
T1 sequence (P14174 whole entry): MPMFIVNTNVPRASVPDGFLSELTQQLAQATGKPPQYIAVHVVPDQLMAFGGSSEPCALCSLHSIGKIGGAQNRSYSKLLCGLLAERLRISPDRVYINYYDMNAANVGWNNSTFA
Nature of the assay: Inhibition of dopachrome tautomerase activity of MIF in human THP1 cells. Format: cell-based, THP-1.

Assay [2] deals with T1, Macrophage migration inhibitory factor. In words: Inhibition of dopachrome tautomerase activity of human recombinant MIF.
For assay [3], the target named is T2, Macrophage migration inhibitory factor (Homo sapiens) (UniProt P14174).
T2 sequence (whole entry): T1 sequence (P14174 whole entry)
Nature of the assay: Inhibition of MIF-induced TNFalpha production in human PBMC at 100 uM by ELISA.

The target in assay [4] is T1, Macrophage migration inhibitory factor. Nature of the assay: Inhibition of spontaneous secretion/release/recognition of MIF from freshly isolated human PBMC by ELISA. (In an ELISA, binding on a coated surface is turned into a signal by an enzyme label.)
In assay [5] the target is T2, Macrophage migration inhibitory factor (Homo sapiens). In words: Inhibition of MIF-induced IL6 production in human PBMC at 100 uM by ELISA.
Assay [6] shares this target. Nature of the assay: Inhibition of MIF-induced IL1-beta production in human PBMC at 100 uM by ELISA.

As for `COc1ccc(C2=NOC(c3noc(C(F)(F)F)n3)C2)cc1F` (centres undefined), the results for the IC50 in assay [1] and in assay [2] were 100 µM and 95 µM, respectively.
Take `CC(C)(C)C(=O)NCCC1CC(c2ccc(O)c(F)c2)=NO1` (centres undefined): the inhibition in assay [3] was 40%; in assay [5] it was 39%; in assay [6] it was 50%. Moreover, the IC50 in assay [1] turned out to be 28 µM; in assay [4] (read-out: IC50), 15 µM; in assay [2], 22 µM.
In assay [1], `COc1ccc(C2=NOC(c3noc(-c4ccccc4N(C)C(=O)O)n3)C2)cc1F` (centres undefined) came in with an IC50 greater than 100 µM.
Regarding `CC(C)(C)C(=O)NCC1CC(c2ccc(O)c(F)c2)=NO1` (centres undefined), in assay [1], the IC50 is greater than 100 µM.
For `Oc1ccc(C2=NOC(c3noc(C(F)(F)F)n3)C2)cc1F` (centres undefined), the IC50 is 60 µM in assay [1] and greater than 100 µM in assay [2].
With `COc1ccc(C2=NOC(c3noc(CCC(=O)NC4CCCCC4)n3)C2)cc1F` (centres undefined), the IC50 in assay [1] is 30 µM; in assay [4], “Not Active”; in assay [2], 9.5 µM.
Compound `CC(C)CC(=O)NCC1CC(c2ccc(O)c(F)c2)=NO1` (centres undefined) had an IC50 in assay [1] greater than 100 µM.
Consider `O=C1c2ccccc2C(=O)N1CCCC1CC(c2ccc(O)c(F)c2)=NO1` (centres undefined), for which the values for the IC50 in assay [1], in assay [4] and in assay [2] were 2 µM, “Not Active” and 7 µM, respectively.
Compound `COc1ccc(C2=NOC(c3noc(C)n3)C2)cc1F` (centres undefined) came in with an IC50 in assay [1] greater than 100 µM.
As to `O=C1c2ccccc2C(=O)N1CC1CC(c2ccc(O)c(F)c2)=NO1` (centres undefined), the IC50 was 29 µM in assay [1], “Not Active” in assay [4] and 36 µM in assay [2].
For `COC(=O)CCc1nc(C2CC(c3ccc(O)c(F)c3)=NO2)no1` (centres undefined), in that order: 50 µM, “Not Active” and greater than 100 µM.
On the same counts, the results for `O=C(CCc1nc(C2CC(c3ccc(O)c(F)c3)=NO2)no1)NC1CCCCC1` (centres undefined) are 25 µM, “Not Active” and greater than 100 µM.
On to `CC(C)CC(=O)NCCC1CC(c2ccc(O)c(F)c2)=NO1` (centres undefined), for which the values for the inhibition in assay [3], in assay [5] and in assay [6] were 53%, 47% and 58%, respectively. Besides, the IC50 in assay [1] was determined as 29 µM; in assay [4] (read-out: IC50), 20 µM; in assay [2] it was 22 µM.
With `O=C(NCCC1CC(c2ccc(O)c(F)c2)=NO1)C(F)(F)F` (centres undefined), the inhibition in assay [3] was found to be 53%; in assay [5], 49%; in assay [6] it was 66%. In addition, the IC50 was 49 µM in assay [1], 15 µM in assay [4] (read-out: IC50) and greater than 100 µM in assay [2].
On to `CN(C)C(=O)NCC1CC(c2ccc(O)c(F)c2)=NO1` (centres undefined), for which, in assay [1], the IC50 is greater than 100 µM.
As to `COc1ccc(C2=NOC(c3noc(CCC(=O)O)n3)C2)cc1F` (centres undefined), the IC50 in assay [1] was 12 µM; in assay [4] (read-out: IC50), 60 µM; in assay [2], greater than 100 µM.
Consider `COc1ccc(C2=NOC(Cc3noc(C(F)(F)F)n3)C2)cc1F` (centres undefined), for which the IC50 in assay [1] was greater than 100 µM; in assay [2], 55 µM.
On to `O=C1CCC(=O)N1CCC1CC(c2ccc(O)c(F)c2)=NO1` (centres undefined), for which the inhibition in assay [3] worked out at 39%; in assay [5], 14%; in assay [6] it was 27%. Also, the values for the IC50 in assay [1], in assay [4] (read-out: IC50) and in assay [2] were 15 µM, 20 µM and 50 µM, respectively.
For `Cc1nc(C2CC(c3ccc(O)c(F)c3)=NO2)no1` (centres undefined), the IC50 is 60 µM in assay [1] and greater than 100 µM in assay [2].
With `O=C(NCCC1CC(c2ccc(O)c(F)c2)=NO1)c1ccc(F)cc1` (centres undefined), the inhibition in assay [3] stood at 56%; in assay [5], 54%; in assay [6], 52%. Also, the IC50 in assay [1] was found to be 15 µM; in assay [4] (read-out: IC50) it was 10 µM; in assay [2] it was 20 µM.
For `COc1ccc(C2=NOC(c3noc(-c4cccc(OC)c4OC)n3)C2)cc1F` (centres undefined), the IC50 is 20 µM in assay [1], “Not Active” in assay [4] and 32 µM in assay [2].
On the same counts, the results for `Oc1ccc(C2=NOC(c3noc(-c4cccc(O)c4O)n3)C2)cc1F` (centres undefined) are 19 µM, “Not Active” and greater than 100 µM.
Consider `Oc1ccc(C2=NOC(Cc3noc(C(F)(F)F)n3)C2)cc1F` (centres undefined), for which the inhibition worked out at 34% in assay [3], 33% in assay [5] and 46% in assay [6].
For the compound `COC(=O)CC1CC(c2ccc(O)cc2)=NO1` (centres undefined), the inhibition was 25% in assay [3], 0% in assay [5] and 25% in assay [6].
Regarding `O=C1c2ccccc2C(=O)N1CCC1CC(c2ccc(O)c(F)c2)=NO1` (centres undefined), the inhibition in assay [3] was 31%; in assay [5] it was 22%; in assay [6], 22%. The IC50 in assay [1] came to 0.5 µM; in assay [4] (read-out: IC50) it was 1.5 µM; in assay [2] it was 0.8 µM.
